In test [1] the target is T1, Carboxypeptidase A1 (Bos taurus, UniProt P00730).
T1 sequence (P00730 whole entry): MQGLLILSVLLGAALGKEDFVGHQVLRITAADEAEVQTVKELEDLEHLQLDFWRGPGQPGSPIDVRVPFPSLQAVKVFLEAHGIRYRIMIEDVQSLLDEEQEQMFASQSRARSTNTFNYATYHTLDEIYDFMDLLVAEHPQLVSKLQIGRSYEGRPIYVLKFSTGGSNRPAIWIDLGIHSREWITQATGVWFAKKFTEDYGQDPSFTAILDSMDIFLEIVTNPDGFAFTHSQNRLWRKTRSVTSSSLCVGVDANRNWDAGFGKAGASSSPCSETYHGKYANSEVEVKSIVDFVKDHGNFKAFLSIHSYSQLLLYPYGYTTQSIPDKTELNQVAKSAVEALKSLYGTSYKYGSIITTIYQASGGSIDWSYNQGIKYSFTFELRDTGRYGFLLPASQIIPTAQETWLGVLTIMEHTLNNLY
Put plainly: Inhibition of bovine pancreatic carboxypeptidase A by microtiter plate method.

For test [2], the target named is T2, Carboxypeptidase B (Homo sapiens, UniProt P15086).
T2 sequence (P15086 whole entry): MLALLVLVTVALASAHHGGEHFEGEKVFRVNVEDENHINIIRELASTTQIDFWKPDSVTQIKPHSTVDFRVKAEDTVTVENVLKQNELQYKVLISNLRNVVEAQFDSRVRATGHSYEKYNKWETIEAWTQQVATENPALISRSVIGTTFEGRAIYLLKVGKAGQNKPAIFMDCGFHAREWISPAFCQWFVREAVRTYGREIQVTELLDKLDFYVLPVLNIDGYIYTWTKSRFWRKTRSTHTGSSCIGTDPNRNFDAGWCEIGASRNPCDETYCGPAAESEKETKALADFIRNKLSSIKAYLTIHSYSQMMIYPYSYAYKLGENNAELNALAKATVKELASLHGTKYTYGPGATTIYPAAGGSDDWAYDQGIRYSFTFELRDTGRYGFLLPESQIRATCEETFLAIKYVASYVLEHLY
Description: Inhibition of human recombinant carboxypeptidase B expressed in Saccharomyces cerevisiae by microtiter plate method.

For `COC(=O)CNC(=O)[C@@H]1CC[C@@H]1NC(=O)OCc1ccccc1`, the values for the inhibition constant Ki in test [1] and in test [2] were 550 µM and 500 µM, respectively.
Take `COC(=O)[C@H]1CC[C@H]1NC(=O)[C@H]1CC[C@H]1NC(=O)OCc1ccccc1`: the Ki in test [1] came out at 67 µM; in test [2] it was 70 µM.
The like results for `COC(=O)[C@@H]1CC[C@@H]1NC(=O)[C@@H]1CC[C@@H]1NC(=O)OCc1ccccc1` were, in that order, 95 µM and 275 µM.
For `COC(=O)CCNC(=O)[C@@H]1CC[C@@H]1NC(=O)OCc1ccccc1`, the inhibition constant (Ki) in test [1] is 180 µM; in test [2], 400 µM.
With `O=C(O)CCNC(=O)[C@@H]1CC[C@@H]1NC(=O)OCc1ccccc1`, the values for the Ki in test [1] and in test [2] were 70 µM and 43 µM, respectively.
The like results for `COC(=O)CCCCNC(=O)[C@H]1CC[C@H]1NC(=O)OCc1ccccc1` were, in that order, 72.5 µM and 410 µM.

The values are drawn from ChEMBL document CHEMBL1137763, “Cyclobutane-containing peptides: evaluation as novel metallocarboxypeptidase inhibitors and modelling of their mode of action” (Bioorg Med Chem, 2009).
